Experiment [1] concerns root-knot nematode Meloidogyne graminicola. As to the kind of experiment: Susceptibility assay on rice plants, soil drench. The format is in vivo. The conditions noted are these: soil drench 24 h prior to inoculation (AA 20 mM, DHA 20 mM, AO 20 U/mL); twelve days after inoculation; vs control. On the procedure: (§1) M. graminicola originally isolated in the Philippines (Batangas) was cultured on susceptible rice plants. Second stage juveniles (J2s) were extracted using a sieve/tray extraction method and inoculation was done as described in Nahar et al., (2011). For susceptibility assays, at least two independent experiments were carried out, each time including eight plants per treatment. Twelve days after inoculation (dai), roots were stained using acid fuchsine (Nahar et al., 2011) to count galls and number of nematodes in the roots.
(§2) Reduced Ascorbic acid (AA, 20 mM), dehydroascorbic acid (DHA, 20 mM), ascorbate oxidase (AO, 20 U/ml), methyl jasmonate (MeJA, 100 μM), aminooxyacetic acid (AoA, 12.5 mM), diethyldithiocarbamic acid (DIECA, 100 μM) and ethephon (100 μM) were purchased from Sigma and dissolved in water (except MeJA that was first dissolved in a drop of ETOH) to attain the indicated concentration.
For soil application, 6.5 mL of each solution was drenched on the substrate, 24 h prior to nematode inoculation.

Experiment [2] deals with root-knot nematode M. graminicola. As to the kind of experiment: Susceptibility assay on rice plants, foliar spray. The format is in vivo, Meloidogyne graminicola. The conditions noted are these: foliar spray 24 h prior to inoculation (AA 20 mM, DHA 20 mM, AO 20 U/ml); 12 dai; vs control. How it is done: as §1, §2
(§3) For foliar application, all chemicals were dissolved in water and 0.02% (v/v) of Tween20 as a surfactant was added prior to spraying on aerial portions of the rice plants. Control plants were sprayed with distilled water containing 0.02% Tween20. Eight plants per treatment were sprayed until run-off with 6.5 mL of solution (at 24 h prior to nematode inoculation, in cases where infected plants were used). The substrate was covered to avoid direct contact with the roots and/or nematodes.

The next experiment concerns rice plants. The experiment in a line: Root growth in rice after foliar spray, uninfected conditions. Type of experiment: in vivo, Oryza sativa cv. Nipponbare. The conditions noted are these: 14-days old rice, foliar spray 20 mM, 12 DAS, vs water control. On the procedure:
(§4) Rice—Seeds of wild-type rice Oryza sativa cv. Nipponbare were obtained from USDA (GSOR-100). Seeds were germinated on wet filter paper for 4-5 days at 30° C. and seedlings were then transferred to SAP-substrate (Sand mixed with Absorbent Polymer AquaPerla®, DCM, Belgium) and further grown at 28° C., under a light regime of (day/night) 12/12. Hoagland solution was given as a source of nutrients 3 times a week.
as §2, §3

For the next experiment, the system named is rice seedlings. As to the kind of experiment: Evaluation of seedling growth after drenching rice seedlings. Type of experiment: in vivo, Oryza sativa cv. Nipponbare. How it is done: as §4, §2
3-days old rice seedlings were drenched with 1 mL of AA (20 mM), AO (20 U/mL), DHA (20 mM) or water (H2O) as a negative control. Rice root length and dry root weight as well as the number of embryonic crown roots (ECR) were measured 5 days after drenching.

The subject of a further experiment is M. graminicola. As to the kind of experiment: Infection experiment with JA/ET mutant and biosynthesis inhibitors, foliar spray. The format is in vivo, Meloidogyne graminicola. The conditions noted are these: 12 days after inoculation. On the procedure: as §1, §2, §3
In experiment [3] the test system is root-knot nematode Meloidogyne graminicola. As to the kind of experiment: Root growth in rice after foliar spray, nematode-infected conditions (tolerance). Type of experiment: in vivo. The conditions noted are these: 14-days old rice, foliar spray 20 mM, 250 nematodes per plant. How it is done:
as §4, §1, §2, §3

For the next experiment, the system named is Heterodera schachtii. The experiment in a line: Sugar beet tolerance to beet cyst nematode infection after foliar spray. The format is in vivo. The conditions noted are these: 250 H. schachtii per plant. On the procedure: Sugar beet—seeds of cv. Amarok were germinated on moist tissue for 4-5 days at 25° C. For longer experiments seedlings were transplanted to polyvinyl-chloride (PVC) tubes containing fine soil particles. All experiments were conducted in a plant growth room at 25° C., with a 16/8 h day/night regime. The plants were fertilized by supplying Hoagland solution as a source of nutrients 3 times a week.
BNC cysts were obtained from Iran and were maintained on sugar beet (cv. Amarok) plants. Cysts were obtained from stock cultures, by washing the infected soil and letting the cysts to float in water. Full cysts with eggs were hand-picked and allowed to dry before setting up for hatching. For second-stage juveniles (J2) to hatch, cysts were placed in 3 mM of […] and transferred to an incubator/shaker at a temperature of 25.5° C. at 70 rpm for 4 days (Kammerhofer et al., 2015). J2 were re-suspended in water and counted under a stereomicroscope. Around 250-300 J2 nematodes were inoculated per plant. One day before and after inoculation, plants were not supplied with any nutrients or water. To investigate the plant tolerance to BCN infection root length, shoot height, fresh root weight as well as the number of cysts were measured at different time points after spraying and/or inoculation. For all experiments, 8 individual plants were used per treatment.
as §2, §3

Experiment [4] is described as follows: Ascorbate measurements in shoots and roots of foliar sprayed rice. Type of experiment: in vivo, Oryza sativa cv. Nipponbare. The conditions noted are these: 24 h after foliar application; vs control plants. How it is done: as §3
[…] In each assay, 100 mg of crushed material was used per sample, and at least 4 biological replicates were analyzed per treatment. Reduced and oxidized AA were measured according to the method described in Ueda et al., 2013. Absorbance was monitored using a microplate reader (TECAN—Infinite200pro).

For the next experiment, the system named is Turnip mosaic virus. The conditions noted are these: applied to Brassica rapa plants (Fujiwara et al., 2013); cited from earlier work.
Another experiment relates to H2O2. As to the kind of experiment: H2O2 measurements in roots (xylenol orange method). The format is in vivo, rice. The conditions noted are these: 20 mM DHA-pretreated plants upon M. graminicola infection, 1 dpi. On the procedure:
H2O2 measurements—14 days old rice plants were foliar sprayed with 20 mM DHA and 1 day later, plants were inoculated with Meloidogyne graminicola nematodes (Mg+) or mock inoculated (Mg−). One day after inoculation, samples were collected. Root samples were flash-frozen and ground under liquid nitrogen. Per sample, 100 mg of material was used to execute the xylenol orange method for H2O2 quantification described by Cheeseman (2006). After 5% trichloroacetic acid extraction, and 30 minutes reaction with the ferrous ammonium sulphate/xylenol orange (FOX) reagent, the absorbance was measured at 560 nm. The concentration was calculated by comparison with a standard curve of known H2O2 concentrations. The assay was done with 3 biological replicates, which each consisted of pooled material of 4 plants.

[5] abbreviates: 3-days old rice seedlings drenched with 1 mL (AA 20 mM, DHA 20 mM, AO 20 U/ml), 5 days after drenching, vs water control.
[6] abbreviates: three-weeks old sugar beet, foliar spray (AA 20 mM, AO 20 U/mL, DHA 20 mM), 4 DAS (3 dai).

The source of these data is US20230104477A1, “USE OF DEHYDROASCORBIC ACID AGAINST NEMATODE INFECTION IN PLANTS” (Universiteit Gent, priority 2019, published 2023).

Consider `O=C1O[C@H]([C@@H](O)CO)C(=O)C1=O` [DHA, (5R)-5-[(1S)-1,2-dihydroxyethyl]furan-2,3,4(5H)-trione], for which the number of galls entry in [1] and in [2] was “significantly lower number of galls” in each case. The number of nematodes result in experiment [1] and in experiment [2] was “lower number of nematodes” throughout. For the same compound, the root length result was “significantly longer roots” in the experiment with rice plants; “significantly higher” with rice seedlings (setting [5]); “most significant improved root length” in experiment [3] (8 DAS (7 days after inoculation)); “most significant improved root length” in experiment [3] (12 DAS (11 days after inoculation)); “significantly increased” in the experiment on Heterodera schachtii (setting [6]). Moreover, in the experiment with rice seedlings (setting [5]), the dry root weight result was “significantly higher”. The “number of embryonic crown roots (ECR)” value in the experiment on rice seedlings (setting [5]) is recorded as “significantly higher”. For the same compound, the “general appearance of seedlings” value with rice seedlings (rice seedlings drenched with DHA 20 mM) was “looked more vigorous”. The “reduction in number of galls” value in the experiment with M. graminicola (Osjarl (JA signalling) mutants sprayed with DHA 20 mM) is reported as 25-30%; in the experiment on M. graminicola (wild-type Nipponbare sprayed with DHA 20 mM vs unsprayed wild-type), 50-70%. For the same compound, in the experiment on Heterodera schachtii (foliar spray DHA 20 mM, 43 DAS, vs control), the root system development entry is “better developed root system”. In addition, the number of cysts entry in the experiment with Heterodera schachtii (foliar spray DHA 20 mM, 43 DAS, vs untreated plants) is recorded as “significantly lower”. The fresh root weight entry with Heterodera schachtii (foliar spray, 43 DAS (42 days after inoculation), vs control) is reported as “significantly more fresh root weight”. Besides, in the experiment with Heterodera schachtii (setting [6]), the root weight result is listed as “significantly increased”. Moreover, the shoot weight entry with Heterodera schachtii (setting [6]) is listed as “significantly increased”. Besides, in the experiment on Heterodera schachtii (three-weeks old sugar beet, foliar spray (AA 20 mM, AO 20 U/mL, DHA 20 mM), 4 DAS (3 dai), DHA effect not statistically significant), the shoot height entry is listed as “positively influenced”. The “amount of DHA in shoots” value in experiment [4] is reported as “significantly higher amounts of DHA”. In addition, in experiment [4], the “total ascorbate level in roots” value is “increased”. Besides, the antiviral effect entry with Turnip mosaic virus is “antiviral effect”. Moreover, the “H2O2 levels in roots” value with H2O2 is given as “induced”.
